According to patent publication US5072032A, “Preparation and use of thiophosphonates and thio-analogues of phosphonoformic acid” (priority 1989, dated 1991):
Where two headings read alike, the source gives them in different places.

What was measured:
EBV DNA polymerase = target: T1, EBV DNA polymerase (Epstein-Barr virus, UniProt P03198); assay: Viral polymerase inhibition, EBV; assay type: biochemical
T1 construct: made in house
Excerpt: (§1) Viral DNA polymerases (HSV-1, HSV-2, EBV) were purified by previously published methods (Derce, D. K. F. Bastow, and Y. C. Cheng (1982) J. Boil. Chem. 257:10251-10260; Ostrander, M., and Y. C. Cheng (1980) Biochim. Biophys. Acta 609:232-245; Tan, R. S., A. Datta. and Y. C. Cheng (1982) J. Virol. 44:893-899). These procedures generally included sequential chromatography on DEAE-cellulose. HIV reverse transcriptase was purified by antibody affinity column chromatography as descrbed (Starnes. M. C. and Y. C. Cheng (1989) J. Biol. Chem. 264:7073-7077). The purified enzymes were dialyzed against and stored in 50 mM Tris-HCl (pH 7.5) containing 1 mM each of DTT, EDTA and PMSF plus 30% glycerol. Mammalian DNA polymerases alpha, beta, gamma, and delta were partially purified from K562 celles (chronic myelogenous leukemia tissue culture line). Briefly, washed cell pellets were extracted and passed throgh DEAE-cellulose in the presence of 300 mM KPO4 (pH 7.5) as previously described (Starnes, M. C., and Y. C. Cheng (1987) J. Biol. Chem 282:988-981) to remove DNA. The column flow-through fractions were dialyzed against buffer which contained 50 mM Tris-HCl (pH 7.5), and fractionated on a single-stranded DNA-cellulose column with a 0-1M KCl gradient.
Standard assays were run at 37° C. and contained: 50 mM Tris, pH b 8.0, 0.5 mM DTT, 8 mM MgCl2, 100 μg/mL BSA, 150 μg/mL gapped calf thymus DNA, 100 μM each dATP, dCTP, dGTP, 10 .parallel.M [^3 H]-dTTP, and 1-5 .parallel.L enzyme in a final volume of 50 .parallel.L. Modified assays for pH dependence inhibition studies with PFA (1) and α--oxo phosphonates (4 and 5) contained 50 mM Hepes, pH 8.2-6.5, 8 mM MgCl2, 100 mM KCl, 100 μg/ml BSA, 0.5 A260 units/ml of poly(rA).(dT)10, 100 μM [^3 H]dTTP, and 1.5 .parallel.L enzyme in a final volume of 50 μL. Samples were processed as described above.

human DNA polymerase α = target: T2, human DNA polymerase α (Homo sapiens, UniProt P09884); assay: Human DNA polymerase inhibition, alpha; assay type: biochemical; conditions: for remaining activity at 100 µM: read-out: % Control at 100 μM ± S.D.
T2 construct: Mammalian DNA polymerases alpha, beta, gamma, and delta were partially purified from K562 celles; endogenous in cells; host or cells: K562 (chronic myelogenous leukemia tissue culture line)
Excerpt: as §1
In accordance with the teaching of the present invention similar enzyme inhibition assays were also conducted with respect to mammalian enzymes, more particularly, human DNA polymerase.

[1] = Toxicity: cell density of uninfected H9 cultures; assay type: cell-based; conditions: human, h9 cells, 3 days, read-out: Cell Survival (%)
Description: (§2) In addition to testing the activity of TPFA against HIV enzyme, the activity against the virus itself was also determined in accordance with the following protocol. The experimental protocol involved incubatino of H9 lymphocytes (3.5×10^6 cells/ml) in the presence or absence of HIV-1 (HTLV-IIIB) for one hour at 37° C. Cells were washed thoroughly to remove unabsorbed virions and re-suspended at 4×10^5 cells/ml in culture medium. Aliquots (1 ml) were placed in wells of 24 well culture plates containing any equal volume of test compound (diluted in culture medium). After incubation for three days at 37° C., cell density of uninfected cultures was determined to assess toxicity of the test compound. A p24 antigen capture was used to determine the level of HIV infection in HIV treated cultures. The ability of test compounds to inhibit HIV replication was measured at different concentrations relative to infected, untreated cultures. Test compounds were considered to be active if p24 levels were <70% of infected, untreated cultures. Cytotoxicity in uninfect4ed H9 cells was not detected.

uninfected H9 cells = assay: Toxicity: cell density of uninfected H9 cultures; assay type: cell-based; conditions: 3 days
Description: as §2

T2 sequence (P09884 whole entry): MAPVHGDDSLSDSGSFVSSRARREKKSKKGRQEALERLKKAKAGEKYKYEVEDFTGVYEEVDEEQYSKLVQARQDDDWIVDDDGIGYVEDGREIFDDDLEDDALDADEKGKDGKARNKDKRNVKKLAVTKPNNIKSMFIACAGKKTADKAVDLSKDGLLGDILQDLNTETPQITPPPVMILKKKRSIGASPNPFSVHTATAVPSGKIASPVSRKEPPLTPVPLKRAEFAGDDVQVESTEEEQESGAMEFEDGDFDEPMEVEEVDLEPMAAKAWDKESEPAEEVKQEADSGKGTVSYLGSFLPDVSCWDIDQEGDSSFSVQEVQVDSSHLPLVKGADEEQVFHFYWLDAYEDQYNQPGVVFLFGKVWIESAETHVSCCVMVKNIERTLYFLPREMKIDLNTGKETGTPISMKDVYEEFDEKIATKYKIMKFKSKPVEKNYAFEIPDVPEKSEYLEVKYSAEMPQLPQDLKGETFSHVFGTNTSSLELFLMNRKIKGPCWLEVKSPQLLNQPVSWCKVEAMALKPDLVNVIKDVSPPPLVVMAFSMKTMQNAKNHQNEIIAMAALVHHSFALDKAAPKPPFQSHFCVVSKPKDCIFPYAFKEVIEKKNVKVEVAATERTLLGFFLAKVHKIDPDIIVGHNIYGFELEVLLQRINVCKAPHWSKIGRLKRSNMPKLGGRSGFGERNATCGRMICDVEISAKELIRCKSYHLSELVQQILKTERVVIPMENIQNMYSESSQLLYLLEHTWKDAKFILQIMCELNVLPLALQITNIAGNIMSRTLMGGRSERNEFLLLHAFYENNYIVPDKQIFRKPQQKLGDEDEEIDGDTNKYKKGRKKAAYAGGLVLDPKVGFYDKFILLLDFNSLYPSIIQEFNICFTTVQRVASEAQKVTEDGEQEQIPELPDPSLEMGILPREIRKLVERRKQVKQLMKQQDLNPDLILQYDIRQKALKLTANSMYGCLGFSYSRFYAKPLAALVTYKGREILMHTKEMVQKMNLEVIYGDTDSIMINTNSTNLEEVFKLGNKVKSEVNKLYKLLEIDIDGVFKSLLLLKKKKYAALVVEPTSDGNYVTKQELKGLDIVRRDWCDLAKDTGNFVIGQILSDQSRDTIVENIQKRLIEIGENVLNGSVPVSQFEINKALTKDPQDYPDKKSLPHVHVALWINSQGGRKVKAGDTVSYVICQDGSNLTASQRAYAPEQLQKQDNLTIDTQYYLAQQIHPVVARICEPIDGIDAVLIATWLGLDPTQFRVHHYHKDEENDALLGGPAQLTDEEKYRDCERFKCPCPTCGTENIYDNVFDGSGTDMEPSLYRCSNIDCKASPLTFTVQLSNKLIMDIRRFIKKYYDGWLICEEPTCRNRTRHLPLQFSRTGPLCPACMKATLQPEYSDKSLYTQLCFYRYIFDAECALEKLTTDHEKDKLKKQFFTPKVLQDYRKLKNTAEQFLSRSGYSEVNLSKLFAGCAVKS
T2 sequence (Q14181 whole entry partner): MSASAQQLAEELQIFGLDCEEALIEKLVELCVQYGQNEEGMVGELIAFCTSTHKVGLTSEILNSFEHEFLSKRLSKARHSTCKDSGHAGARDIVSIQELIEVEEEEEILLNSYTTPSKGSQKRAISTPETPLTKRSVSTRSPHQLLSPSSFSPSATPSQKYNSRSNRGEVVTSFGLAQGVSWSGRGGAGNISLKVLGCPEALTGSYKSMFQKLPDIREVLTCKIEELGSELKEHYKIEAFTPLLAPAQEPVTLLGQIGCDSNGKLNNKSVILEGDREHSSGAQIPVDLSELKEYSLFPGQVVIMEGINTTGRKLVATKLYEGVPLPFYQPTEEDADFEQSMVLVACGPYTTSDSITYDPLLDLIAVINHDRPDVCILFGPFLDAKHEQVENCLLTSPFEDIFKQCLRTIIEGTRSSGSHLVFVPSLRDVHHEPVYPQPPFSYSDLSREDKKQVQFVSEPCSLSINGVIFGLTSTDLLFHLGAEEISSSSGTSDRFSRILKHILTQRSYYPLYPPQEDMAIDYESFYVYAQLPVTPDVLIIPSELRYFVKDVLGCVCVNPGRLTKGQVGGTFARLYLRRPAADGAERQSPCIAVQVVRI
T2 sequence (P49642 whole entry partner): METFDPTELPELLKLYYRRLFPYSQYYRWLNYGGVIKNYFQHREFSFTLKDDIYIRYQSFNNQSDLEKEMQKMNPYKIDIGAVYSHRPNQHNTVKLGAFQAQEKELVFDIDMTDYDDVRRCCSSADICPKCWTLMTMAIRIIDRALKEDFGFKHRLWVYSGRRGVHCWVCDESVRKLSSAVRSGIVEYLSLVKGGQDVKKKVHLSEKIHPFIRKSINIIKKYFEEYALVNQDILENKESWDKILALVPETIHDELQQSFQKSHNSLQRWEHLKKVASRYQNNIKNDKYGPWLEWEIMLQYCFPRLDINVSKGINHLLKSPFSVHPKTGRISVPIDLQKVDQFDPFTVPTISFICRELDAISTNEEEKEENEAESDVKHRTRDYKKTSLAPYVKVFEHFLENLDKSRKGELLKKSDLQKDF
T2 sequence (P49643 whole entry partner): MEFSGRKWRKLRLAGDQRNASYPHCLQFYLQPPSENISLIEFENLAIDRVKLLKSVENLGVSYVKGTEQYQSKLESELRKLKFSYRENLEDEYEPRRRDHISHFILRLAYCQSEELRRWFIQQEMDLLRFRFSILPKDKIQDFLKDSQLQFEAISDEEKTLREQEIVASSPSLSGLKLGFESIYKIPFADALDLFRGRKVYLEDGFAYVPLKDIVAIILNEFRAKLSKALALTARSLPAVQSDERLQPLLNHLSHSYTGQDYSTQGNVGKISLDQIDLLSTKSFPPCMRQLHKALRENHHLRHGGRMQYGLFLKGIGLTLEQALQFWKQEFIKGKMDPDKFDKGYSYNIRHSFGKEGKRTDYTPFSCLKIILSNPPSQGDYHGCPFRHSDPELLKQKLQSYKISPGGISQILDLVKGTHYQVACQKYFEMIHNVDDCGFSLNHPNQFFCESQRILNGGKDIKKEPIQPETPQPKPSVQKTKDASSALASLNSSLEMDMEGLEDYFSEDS
T1 sequence (P03198 whole entry): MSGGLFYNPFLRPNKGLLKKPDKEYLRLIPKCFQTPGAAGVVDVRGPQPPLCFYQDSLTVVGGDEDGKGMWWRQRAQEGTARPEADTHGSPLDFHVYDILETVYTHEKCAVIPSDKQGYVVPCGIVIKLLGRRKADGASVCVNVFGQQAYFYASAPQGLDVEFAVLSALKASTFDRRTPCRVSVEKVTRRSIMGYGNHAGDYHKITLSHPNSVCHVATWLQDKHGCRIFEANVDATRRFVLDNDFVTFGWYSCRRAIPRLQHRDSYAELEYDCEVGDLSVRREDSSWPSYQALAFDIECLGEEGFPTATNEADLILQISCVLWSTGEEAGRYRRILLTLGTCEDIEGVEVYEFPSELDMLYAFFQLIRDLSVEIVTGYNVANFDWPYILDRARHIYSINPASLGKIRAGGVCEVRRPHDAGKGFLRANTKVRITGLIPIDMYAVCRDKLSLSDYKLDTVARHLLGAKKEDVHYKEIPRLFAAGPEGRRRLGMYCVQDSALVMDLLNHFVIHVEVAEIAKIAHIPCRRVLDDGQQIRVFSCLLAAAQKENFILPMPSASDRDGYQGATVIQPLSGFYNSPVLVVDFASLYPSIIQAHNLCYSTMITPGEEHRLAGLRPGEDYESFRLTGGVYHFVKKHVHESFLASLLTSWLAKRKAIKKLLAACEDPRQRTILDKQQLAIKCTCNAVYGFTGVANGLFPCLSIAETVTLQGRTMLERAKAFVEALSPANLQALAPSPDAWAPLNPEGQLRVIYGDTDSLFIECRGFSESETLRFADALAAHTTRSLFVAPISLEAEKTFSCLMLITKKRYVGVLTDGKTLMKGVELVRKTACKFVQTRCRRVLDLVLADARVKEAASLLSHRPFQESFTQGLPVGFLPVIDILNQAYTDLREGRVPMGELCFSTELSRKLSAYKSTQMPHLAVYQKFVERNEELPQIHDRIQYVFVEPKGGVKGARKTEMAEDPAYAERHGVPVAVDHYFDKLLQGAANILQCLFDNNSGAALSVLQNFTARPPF

O=C(O)P(O)(O)=S [TPFA, thiophosphonoformic acid]
IC50 (EBV DNA polymerase): 70 µM
effectiveness of TPFA relative to PFA (EBV DNA polymerase; EBV enzyme, ratio of ID50 values of Table I): more than seventy times less effective
IC50 (human DNA polymerase α): > 100 µM
toxicity to the human enzyme relative to PFA (therapeutic index) (human DNA polymerase α; HIV enzyme and human enzyme, Tables I and II): at a minimum, three times less toxic
fold less active against the human enzyme than against the HIV enzyme (therapeutic index) (human DNA polymerase α; human DNA polymerase vs HIV enzyme of Table I): greater than 100 fold
remaining activity at 100 µM (human DNA polymerase α): 72 ± 3%
viability at 72 h ([1]; drug conc. 0.1 μg/mL): 113%
viability at 72 h ([1]; drug conc. 0.5 μg/mL): 113%
viability at 72 h ([1]; drug conc. 2 μg/mL): 110%
viability at 72 h ([1]; drug conc. 10 μg/mL): 104%
viability at 72 h ([1]; drug conc. 50 μg/mL): 93%
viability at 72 h ([1]; drug conc. 200 μg/mL): 84%
Toxicity (uninfected H9 cells; drug conc. 0.1 μg/mL): non-T
Toxicity (uninfected H9 cells; drug conc. 0.5 μg/mL): non-T
Toxicity (uninfected H9 cells; drug conc. 2 μg/mL): non-T
Toxicity (uninfected H9 cells; drug conc. 10 μg/mL): non-T
Toxicity (uninfected H9 cells; drug conc. 50 μg/mL): non-T
Toxicity (uninfected H9 cells; drug conc. 200 μg/mL): non-T

O=C(O)P(=O)(O)O [PFA, phosphonoformic acid]
IC50 (EBV DNA polymerase; EBV, "activated" DNA, read-out: ID50 (the source's name)): 1 µM
remaining activity at 100 µM (human DNA polymerase α; Pol α, 100 μM, "activated" DNA): 16 ± 2%
IC50 (human DNA polymerase α; Pol α, "activated" DNA, read-out: ID50 (the source's name)): 31 µM
viability at 72 h ([1]; drug conc. 1.9 μg/mL): 98%
viability at 72 h ([1]; drug conc. 7.5 μg/mL): 96%
viability at 72 h ([1]; drug conc. 30 μg/mL): 92%
viability at 72 h ([1]; drug conc. 120 μg/mL): 102%
Toxicity (uninfected H9 cells; drug conc. 1.9 μg/mL): non-T
Toxicity (uninfected H9 cells; drug conc. 7.5 μg/mL): non-T
Toxicity (uninfected H9 cells; drug conc. 30 μg/mL): non-T
Toxicity (uninfected H9 cells; drug conc. 120 μg/mL): non-T
